# Test results: patent US12439925B2, “Anti-pathogenic activity of a bifunctional peptidoglycan/chitin hydrolase” (Universiteit Antwerpen, priority 2018, dated 2025)
# “Also recorded” adds a separate entry of the source. Where two headings read alike, the source gives them in different places.
# B1: Msp1: bifunctional peptidoglycan/chitin hydrolase, major secreted protein 1, purified from L. rhamnosus GG supernatant (protein)
# chain: MVDSKKVLSVTAGFVGAAGLAALATGANTVSASTGTVSYKSGATTVWNSPSWHQVKRYVTFGDTVQLLGKTVDQNGATWYKVGDNQWIPELYLNVAGKTATVETPSSAASQTAVSQAPASQAPTSQAPATQTPAAPQTDTQTANTQLYVKNIGSAVTVWTTPAYTHATGQYLEGSQTLTAVAQQQANGETWYRLANGGYVPARFVSTTPVAVTPQPAAPQSNEASVASTNTNAANDSAAASSAAASQAAASSAAASTAAANAAVASANATASQAAASEAAASQAAASQAAASQAAASQAAASQAAASQAAASQAAASQAAASQAAASQAAANAAQQAPANQANVTTTQVNANQAQQQTATATPAVNTSNQTAAVSASRQAKIQAVIAIAEQQVGKPYVWGGKGPNSFDCSGLMYYAFLNGAGVNIGGWTVPQESSGTQVSLSALQPGDLLFWGSHGSTYHVALYIGGGTMIQAPQPGENVKYTALAYFMPDFAVRPSL
# modifications: Msp1 protein
# notes: bifunctional peptidoglycan/chitin hydrolase, major secreted protein 1, purified from L. rhamnosus GG supernatant
# Tests used:
# [1] = tested on: C. albicans; assay type: cell-based, Candida albicans; settings: for effect of acids on hyphal formation in C. albicans: compared with lactic acid
# Description: (§1) Candida (albicans, dubliensis, and tropicalis) hyphae were induced by incubating 10^6 CFU/ml cells with 10% FCS, for 3 h at 37° C. in the wells of a 24-well plate, in a total volume of 500 μl per repetition and 4 biological repetitions per condition. To investigate the effect of lactobacilli 10^8 CFU/ml L. rhamnosus strains were added to the wells and co-incubated. To investigate the effect of Msp1, 5 μg/ml or 10 μg/ml of purified Msp1 from L. rhamnosus GG or L. rhamnosus GR-1 was added to the wells and co-incubated. To investigate the effect of acids, 100 μl of a 1% lactic acid or 1% butyric acid was added to the wells and co-incubated. After (co-) incubation for 3 h, at least 100 yeast cells and/or hyphae were counted in each well (4 per condition) and the ratio of hyphae to yeast cells was calculated.
# [2] = tested on: C. albicans biofilms; assay: Inhibition of C. albicans biofilm formation (XTT, absorbance 492 nm); assay type: cell-based, Candida albicans; settings: 24 h
# Description: The inhibiting effects on C. albicans biofilms were assessed. Briefly, C. albicans was grown overnight in YPD medium and suspended to 10^6 CFU/ml and added to the wells of a 96 well plate (80 μl/well), together with the samples (supernatant, lactic acid, Msp1) or controls (MRS or H20). After incubation for 24 h at 37° C., the biofilms were washed twice and then 2,3-bis (2-methoxy-4- nitro-5-sulfophenyl)-2H-tetrazolium-5-carboxanilide (90 μl, 1 mg/ml) (Sigma Aldrich) and phenazine methosulphate (10 μl, 0.2 mg/ml) (Sigma Aldrich) were added to the wells. After a second incubation (37° C., 30 minutes, in the dark), the absorbance at 492 nm was measured using a Synergy™ HTX multi-mode reader (Biotek, Drogenbos, Belgium).
# [3] = Chitinase activity based on breakdown of chitin-azure; assay type: biochemical; settings: compared with commercial chitinase from Streptomyces griseus; sodium acetate buffer control
# Description: First, the chitinase activity of Msp1 was investigated based on breakdown of chitin-azure (Sigma), as described previously. Further confirmation was based on inhibition of chitinase activity by 2.5 mM Bisdionine C (Sigma), as described previously.
# [4] = tested on: C. tropicalis; assay: Inhibition of FCS-induced hyphal formation in C. tropicalis; assay type: cell-based, Candida tropicalis; settings: different concentrations of Msp1
# Description: as §1
# [5] = tested on: C. dubliensis; assay: Inhibition of FCS-induced hyphal formation in C. dubliensis; assay type: cell-based, Candida dubliensis; settings: different concentrations of Msp1
# Description: as §1
molecule,measurement,setting,value
"CCCC(=O)O [Butyric acid, butyric acid]",effect of acids on hyphal formation in C. albicans,[1],comparable effects
Cl [hydrochloric acid],effect of acids on hyphal formation in C. albicans,[1],inhibited hyphae formation significantly
"CC(O)C(=O)O (centres unmarked) [Lactic acid, lactic acid]",anti-biofilm activity on C. albicans,[2]; lactic acid 0.4%,showed anti-biofilm activity
same,reduction of hyphal morphogenesis,"[1]; 0.5-2% lactic acid, D- and L-lactic acid 1:1",reduced hyphal morphogenesis
same,reduction of hyphal morphogenesis,[1]; 1% lactic acid (D- and L-lactic acid 1:1),approximately 50%
Cn1cnc2c1c(=O)n(CCCn1c(=O)c3c(ncn3C)n(C)c1=O)c(=O)n2C [Bisdionine C],rescue of C. albicans hyphal morphogenesis from Msp1 inhibition,[1]; 2.5 mM Bisdionine C in the presence of Msp1,partially reversed; also recorded: can prevent hyphal inhibition partially
B1,breakdown of chitin (chitin-azure),[3],"able to break down chitin, to the same extent as a commercially available chitinase; also recorded: can break down chitin derivative, chitin-azure"
same,anti-biofilm activity on C. albicans,[2]; Msp1 10 μg/mL,showed anti-biofilm activity
same,effect on FCS-induced hyphal formation in C. tropicalis,[4],concentration-dependent effect
same,reduction of hyphal morphogenesis,[1]; concentrations as low as 5 μg/mL,more than 50%
same,effect on FCS-induced hyphal formation in C. dubliensis,[5],concentration-dependent effect
